# Assay results: the METLIN SMRT retention time set (Domingo-Almenara et al. 2019)
# Experiment: gradient 5% acetonitrile 3 min, to 50% in 2 min, to 85% in 15 min, held 3 min, 100 µL/min
# Conditions: column: Zorbax Extend-C18 2.1 x 50 mm; eluents: water / acetonitrile, 0.1% formic acid
# How it was run: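 In both positive and negative ionization mode, a quadrupole time-of-flight mass spectrometer coupled to HPLC analyzed pure standards run in mixtures of ~100 molecules. The Zorbax Extend-C18 column (2.1 × 50 mm, 1.8 μm) was operated at 100 μL/min with water and acetonitrile, each containing 0.1% formic acid. The dead volume was 40 μL and the dwell volume 900 μL. Retention time came from adduct peaks that were computationally picked and individually inspected by hand.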
row,Compound,RP-LC retention time [s]
1,O=C(NC1CCCCC1)C1CC(=O)N(c2ccc3c(c2)CCN3C(=O)C2CCC2)C1 (stereo not drawn),824
2,Cc1cc(C)n(-c2ccc(C(=O)NCc3nc4ccccc4[nH]3)nn2)n1,564
3,O=C(NCc1cccc(C(F)(F)F)c1)C1CCCN(c2nccnc2Oc2ccccc2)C1 (stereo not drawn),1040
4,CCOCCCNC(=O)Nc1ccc(CCc2nc3ccccc3[nH]2)cc1,598
5,Cc1ccc(C)c(OCc2nc(CC(=O)Nc3nc(-c4ccc(F)cc4)c(C)s3)cs2)c1,1310
6,Cn1cc(-c2noc(-c3cc(F)ccc3Cl)n2)ccc1=O,894
7,COc1ccc(CN2C(=O)COC[C@H]2C(=O)NCc2ccc(Cl)cc2)c(OC)c1,805
8,N#Cc1cccc(C(=O)Nc2ccc3cn[nH]c3c2)c1,659
9,CCOc1cccc(CNC(=O)c2c(C)sc3ccn(C)c(=O)c23)c1,804
10,O=C(CSc1nnc(CCc2nc3ccccc3[nH]2)o1)NCCc1ccc(Cl)cc1,601
11,CCC1CCCCN1C(=O)CSc1n[nH]c(-c2ccccc2)n1 (stereo not drawn),819
12,CCc1ccccc1NC(=O)Cc1c(C)n(C)c2nc(-c3ccccc3)nn2c1=O,865
13,O=C(CN1C(=O)C(C(=O)N2CCCCCC2)Sc2ccccc21)N1CCN(c2ncccn2)CC1 (stereo not drawn),784
14,N#Cc1ccc(C(=O)N2CCCCC2c2nncn2CC2CC2)cc1 (stereo not drawn),677
15,O=C(Cn1cccc(-c2nc(-c3ccc(F)cc3)no2)c1=O)Nc1ccc(Cl)cc1,950
16,Cc1ccc(-c2cc(C(N)=O)[nH]n2)cc1C,690
17,COc1ccccc1N1CCNCC1,627
18,COc1cc(Br)cc2c1OC1(C)CC2NC(=O)N1c1cccc(C(=O)O)c1 (stereo not drawn),672
19,COc1cc(N2C=C(C#N)S(=O)(=O)c3ccc(C)cc32)cc(OC)c1OC,887
20,CC1Cc2ccccc2N1C(=O)c1ccc(=O)n(CCC(=O)N2CCN(C3CCCCC3)CC2)n1 (stereo not drawn),654
21,CCc1ccc(NC(=O)N2CCC(n3cnc4c(C)cccc4c3=O)CC2)cc1,838
22,O=C(c1cc(F)ccc1F)N1CCC(OCC2CC2)C1 (stereo not drawn),772

row,Compound,RP-LC retention time [s]
1,CCn1cc(C(=O)N[C@@H](C)C(=O)O)c(=O)c2cc3c(cc21)OCO3,631
2,Cc1cc(C)cc(C(=O)N2CCCC(C(=O)Nc3c(C)cc(C)cc3C)C2)c1 (stereo not drawn),983
3,COCc1c(C(=O)O)nnn1-c1ccc2c(c1)OCCO2,666
4,Cc1c(C(=O)C(=O)N(C)Cc2ccccc2)c2ccccc2n1C,900
5,CCNC(=O)c1nc(N(C)C)c2c(C)scc2n1,593
6,NC(=O)Cc1csc(NC(=O)c2coc(NC(=O)c3ccccc3)n2)n1,586
7,O=C1C2CCCN2C(=O)c2ccccc2N1Cc1ccccc1 (stereo not drawn),744
8,Cc1cccc(S(=O)(=O)N2CCCN(c3ccc(=O)n(-c4ccccc4)n3)CC2)c1,866
9,COc1ccc(Cl)cc1NC(=O)N1CCC(C(=O)Nc2nccs2)CC1,764
10,CSc1ccc(C(C(C(=O)c2ccco2)N2CCOCC2)N2CCOCC2)cc1 (stereo not drawn),698
11,CCOc1ccccc1CNC(=O)C1CCN(C(=O)c2ncn3c2COC(c2ccccc2)C3)CC1 (stereo not drawn),803
12,Cc1oc(-c2ccc(NC(=O)c3ccc4c(c3)OCO4)cc2)nc1Cn1cccn1,822
13,CS(=O)(=O)N1CCC(C(=O)Nc2ccc(F)cc2)Oc2ccc(Cl)cc21 (stereo not drawn),903
14,CCOc1ccccc1CNC(=O)Cc1csc2nc(-c3ccccc3)cn12,830
15,COc1ccc(-c2csc3c(=O)n(CC(=O)OC(C)C)cnc23)cc1,939
16,Cc1noc(-c2ccc(NC(=O)COc3ccc(Cl)cc3Cl)cc2)n1,1030
17,COc1ccc(OC)c(S(=O)(=O)N(C)C)c1,702
18,O=C(NC1CC1)C1CCCN(c2ccc3cc(S(=O)(=O)N4CCCCC4)ccc3n2)C1 (stereo not drawn),683
19,COc1ccc(CCNc2ncnc(N)c2[N+](=O)[O-])cc1OC,660
20,Cc1ccc(Sc2nccnc2N2CCCC(C(=O)N3CCN(c4ccccn4)CC3)C2)cc1 (stereo not drawn),768
21,O=C(CSc1nc(=O)[nH]c2c1CCCC2)N1CCCc2ccccc21,729
22,CCOC(=O)C1CCCN(S(=O)(=O)c2cc(C(=O)N3CCCCC3)n(C)c2C)C1 (stereo not drawn),858

row,Compound,RP-LC retention time [s]
1,Cn1cc(CC(=O)NCc2ccc(F)cc2F)c2cccnc21,688
2,CCOC(=O)CNC(=O)N1CCCC1c1ccc(Cl)cc1 (stereo not drawn),795
3,Cn1cc(-c2nc(C(=O)Nc3ccc(F)cc3F)cs2)c2cccnc21,1070
4,Cc1csc(-c2ccc(N3CCN(C(=O)Cc4cccc(F)c4)CC3)nc2)n1,849
5,COc1ccc(OC)c(NC(=O)CN2C(=O)COc3ccc(C(=O)N4CCCC4)cc32)c1,682
6,COc1cc(OC)c(NS(=O)(=O)c2cc(-c3cc(C(F)(F)F)[nH]n3)sc2C)cc1Cl,1020
7,Cc1nc2ccn(Cc3cccs3)c(=O)c2cc1C(=O)N1CCN(c2ccccn2)CC1,611
8,O=C(CN1C(=O)CCSc2ccccc21)NCCCN1CCN(Cc2ccccc2)CC1,614
9,COc1ccc(Cl)cc1NC(=O)CC1CCCCN1S(=O)(=O)c1ccc(F)cc1 (stereo not drawn),1080
10,CCN(CC)CCNC(=O)C1CCN(C2=NS(=O)(=O)C(c3ccc(Cl)cc3)=C2C)CC1,658
11,COC(=O)CC1=CC(SCC(=O)Nc2ccc(Cl)cc2F)=Nc2ccccc2N1,910
12,Cc1nn(C)c2nc(OC(C)C(=O)NCc3cccs3)cc(-c3ccccc3)c12 (stereo not drawn),1040
13,CCCn1ccc2sc(C)c(C(=O)NCc3ccc(OC)cc3)c2c1=O,836
14,CC(C)n1c2ccccc2c2nnc(SCC(=O)Nc3nc(-c4ccccc4)cs3)nc21,1040
15,O=C(Cn1cnc2nc(N3CCC(C(=O)NC4CC4)CC3)sc2c1=O)Nc1cc(F)ccc1F,693
16,NC(=O)C1CCN(C(=O)c2cc(-n3cnnn3)ccc2Cl)CC1,592
17,O=c1ccc(-c2ccccc2)nn1CCc1nc(-c2ccc(Br)cc2)no1,1060
18,O=S(=O)(c1ccccc1F)N1CCC(c2noc(-c3ccccc3)n2)CC1,1020
19,Cc1ccc(C)c(NC(=O)Cn2nc3c(N4CCC(C)CC4)nccn3c2=O)c1,864
20,CCOC(=O)c1cc(C2CC2)nc2c1c(=O)n(Cc1cccc(Br)c1)c(=O)n2C,1280
21,O=c1c2cc(-c3ccc(Br)cc3)nn2cnn1Cc1nc(-c2ccc(F)cc2)no1,1210
22,CCOc1ccc(NC2=NS(=O)(=O)C(c3ccc(OC)cc3)=C2C)cc1,940

row,Compound,RP-LC retention time [s]
1,Cc1cccc(N2CCN(CC(O)c3ccc4c(c3)OCO4)CC2)c1 (stereo not drawn),669
2,COc1cccc(NC(=O)C2CCCN(c3nc4ccccc4nc3OC)C2)c1 (stereo not drawn),1100
3,CCn1c(N2CCC(C(=O)NCCCN3CCOCC3)CC2)cc(=O)n(C)c1=O,574
4,CCc1ccccc1NS(=O)(=O)c1ccc2c(c1)CCCC(=O)N2,756
5,CC(C)c1ccc(S(=O)(=O)Nc2cnc(N3CCNCC3)c(C(=O)NCC3CCCO3)c2)cc1 (stereo not drawn),643
6,O=C(CC1CCN(C(=O)c2ccc3oc(C4CC4)nc3c2)CC1)NCC1CCCO1 (stereo not drawn),640
7,Cc1ccc(CSc2nnc3c(S(=O)(=O)N4CCN(c5ccc(F)cc5)CC4)cccn23)cc1,998
8,CCCCN1CCc2nc(N3CCN(c4ccccc4F)CC3)ncc2C1,715
9,CCOc1ccc(C(=O)NC2CCN(c3cc(-c4ccc(OC)cc4)[nH]n3)C2)cc1OCC (stereo not drawn),742
10,CC(=O)Nc1ccc(C2=NN(C(C)=O)C(c3ccc4c(c3)OCO4)C2)cc1 (stereo not drawn),666
11,O=S(=O)(NCCC1=CCCCC1)c1ccc(-c2cc(C(F)(F)F)on2)o1,1240
12,CCc1ccc(NC(=O)CSc2nnc3c4cc(-c5ccc(OC)cc5)nn4ccn23)cc1,946
13,COCCCNC(=O)c1ccc2c(c1)nc1n2CCN(C2CCCCC2)C1=O,1240
14,Cc1nnc(N2CCCC(C(=O)NCc3cccs3)C2)c2nn(-c3ccc(Cl)cc3)c(C)c12 (stereo not drawn),742
15,O=C(Nc1cccc(-c2ccc(N3CCOCC3)nn2)c1)Nc1cccc(Cl)c1F,770
16,Cc1oc(C2CCN(S(=O)(=O)c3ccc(C#N)cc3)CC2)nc1C(=O)N(C)C,762
17,CCOc1ccc(S(=O)(=O)N2C[C@@H]3C[C@H](NC(=O)c4ccccc4)[C@H]2C3)cc1,900
18,CC(=O)Nc1ccc(CC(=O)N2C[C@@H]3CCN(S(C)(=O)=O)C[C@]3(CF)C2)cc1,617
19,COCCN1C(=O)CC[C@]2(C(=O)NCc3ccccc3Cl)CCCC[C@@H]12,730
20,COc1ccc(-c2cc(NS(=O)(=O)c3cnc[nH]3)n(C3CCS(=O)(=O)C3)n2)cc1 (stereo not drawn),649
21,O=C(NCc1ccc(Br)cc1)C1CCN(c2nnc(-c3ccccc3)o2)CC1,884
22,COc1nccnc1NC1CCN(C(=O)c2cccnc2)CC1,692
